Source: article PMC12472749, “Balsalazide-Derived Heterotriaryls as Sirtuin 5 Inhibitors: A Case Study of a Reversible Covalent Inhibition Strategy” (Molecules, 2025)
“And” between values parts separate entries of the source, which are not always exact repeats. Identical values can stand only once.

Target: T1, hSirt5 (Homo sapiens, UniProt Q9NXA8)
T1 construct: comprised amino acids 37–310 (C-terminal region); His-tag (N); purchased Reaction Biology Corporation (Malvern, PA, USA); host or cells: Escherichia coli
T1 sequence (Q9NXA8 37-310): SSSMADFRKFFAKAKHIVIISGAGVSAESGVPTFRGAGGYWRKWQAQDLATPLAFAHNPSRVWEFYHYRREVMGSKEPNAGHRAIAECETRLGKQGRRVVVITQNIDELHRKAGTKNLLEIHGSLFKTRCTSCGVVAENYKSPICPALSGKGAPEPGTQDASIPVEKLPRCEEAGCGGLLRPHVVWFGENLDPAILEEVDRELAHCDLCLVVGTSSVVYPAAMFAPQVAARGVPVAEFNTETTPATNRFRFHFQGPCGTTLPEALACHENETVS
Assay: fluorescence-based sirtuin 5 assay (Reaction Biology) with substrate Ac-Lys-succ-AMC and NAD+
Format: biochemical
Details: recombinant sirtuin 5 aa 37-310, 50 µM Ac-Lys-succ-AMC, 10-dose 3-fold dilution, mean of three measurements; read-out: IC50 (hSirt5) [µM] ± SD
Description: The synthesized cyclic boronate, cyanomethyl and formylmethyl derivatives of CG_209 and CG_220 were tested for their inhibitory effects against sirtuin 5 using a fluorescence-based assay utilizing a 7-amino-4-methyl coumarin-based succinylated lysine as its substrate. The IC50 values of these compounds were calculated as a mean of three measurements (Table 2). […] Significant loss in the potency of the boronates 51–54 could be observed compared to their lead structures CG_209 and CG_220.
The inhibitory activities of the synthesized target compounds were determined by Reaction Biology Corporation (Malvern, PA, USA) using a fluorescence-based assay. The sirtuin 5 enzyme utilized in this assay was produced in-house by Reaction Biology. The enzyme construct (accession number: NM_012241) comprised amino acids 37–310 (C-terminal region), carried an N-terminal His-tag and was expressed in Escherichia coli. The recombinant protein was purified to >95% purity, as confirmed by SDS-PAGE, and supplied in a solution containing 50 mM Tris-HCl (pH 8.0), 137 mM NaCl, 2.7 mM KCl, 1 mM MgCl2, 1 mg/mL BSA, and 1% DMSO with a protein concentration of 19 nM. Test compounds were prepared at a concentration of 10 mM in DMSO and incubated with 5 µL sirtuin 5 in the assay buffer per well at 30 °C for 10 min in a concentration range between 5 nM and 0.1 mM. 5 µL assay buffer without sirtuin 5 were used for control wells. The deacylation reaction was initiated by the addition of 5 µL substrate mixture comprising 50 µM fluorogenic substrate Ac-Lys-succ-AMC and the co-factor NAD^+. After a 2 h incubation at 30 °C, the reaction was terminated by adding 10 µL protease-based developer with 4 mM nicotinamide, which cleaves 7-amino-4-methylcoumarin to yield a fluorescent signal. Fluorescence was measured after an additional 1 h incubation at 30 °C, with excitation/emission wavelengths of 360/460 nm with EnVision® Plate Reader (Revvity, Waltham, MA, USA). To standardize results, a no-inhibitor control representing 100% enzyme activity was included in all assays. IC50 values for sirtuin 5 inhibition were determined in triplicate using a 10-dose, 3-fold serial dilution series. For each replicate, individual IC50 values were calculated by fitting sigmoidal dose–response curves using Prism 8.0.2 software (GraphPad Software, Boston, MA, USA). The final IC50 values are reported as the mean ± standard deviation of the triplicate measurements.

Compared with `O=C(O)CCNC(=O)c1ccc(-c2cn(-c3ccc(O)c(C(=O)O)c3)nn2)cc1` [CG_220], `N#CC[C@H](CC(=O)O)NC(=O)c1ccc(-c2cn(-c3ccc(O)c(C(=O)O)c3)nn2)cc1` [Compound 49, (R)-5-(4-(4-((1-Carboxy-3-cyanopropan-2-yl)carbamoyl)phenyl)-1H-1,2,3-triazol-1-yl)-2-hydroxybenzoic acid] is 3.9-fold higher in IC50: 9 ± 2 µM for the first, 35 ± 6 µM for the second. The first is the more potent here.

Compared with `O=C(O)CCNC(=O)c1ccc(-c2cc(-c3ccc(O)c(C(=O)O)c3)no2)cc1` [CG_209], `O=CCC(CC(=O)O)NC(=O)c1ccc(-c2cc(-c3ccc(O)c(C(=O)O)c3)no2)cc1` (stereo not drawn) [Compound 61, 5-(5-(4-((1-Carboxy-4-oxobutan-2-yl)carbamoyl)phenyl)isoxazol-3-yl)-2-hydroxybenzoic acid] is 7.5-fold higher in IC50: 11 ± 1 µM for the first, 82 ± 3 µM for the second.

Going from `CC1(C)OC(=O)c2cc(-n3cc(-c4ccc(C5=N[C@H](CC(=O)O)CB(O)O5)cc4)nn3)ccc2O1` [Compound 54, (S)-2-(6-(4-(1-(2,2-Dimethyl-4-oxo-4H-benzo[d][1,3]dioxin-6-yl)-1H-1,2,3-triazol-4-yl)phenyl)-2-hydroxy-3,4-dihydro-2H-1,5,2-oxazaborinin-4-yl)acetic acid] to `CC1(C)OC(=O)c2cc(-n3cc(-c4ccc(C5=N[C@@H](CC(=O)O)CB(O)O5)cc4)nn3)ccc2O1` [Compound 53, (R)-2-(6-(4-(1-(2,2-Dimethyl-4-oxo-4H-benzo[d][1,3]dioxin-6-yl)-1H-1,2,3-triazol-4-yl)phenyl)-2-hydroxy-3,4-dihydro-2H-1,5,2-oxazaborinin-4-yl)acetic acid], the IC50 rises from 61 ± 9 µM to 137 ± 63 µM (2.2-fold).

`N#CC[C@H](CC(=O)O)NC(=O)c1ccc(-c2cc(-c3ccc(O)c(C(=O)O)c3)no2)cc1` [Compound 47, (R)-5-(5-(4-((1-Carboxy-3-cyanopropan-2-yl)carbamoyl)phenyl)isoxazol-3-yl)-2-hydroxybenzoic acid] and `N#CC[C@@H](CC(=O)O)NC(=O)c1ccc(-c2cc(-c3ccc(O)c(C(=O)O)c3)no2)cc1` [Compound 48, (S)-5-(5-(4-((1-Carboxy-3-cyanopropan-2-yl)carbamoyl)phenyl)isoxazol-3-yl)-2-hydroxybenzoic acid] are within error of each other in IC50: 97 ± 22 µM for the first, 65 ± 15 µM for the second.

`CC1(C)OC(=O)c2cc(-c3cc(-c4ccc(C5=N[C@@H](CC(=O)O)CB(O)O5)cc4)on3)ccc2O1` [Compound 51, (R)-2-(6-(4-(3-(2,2-Dimethyl-4-oxo-4H-benzo[d][1,3]dioxin-6-yl)isoxazol-5-yl)phenyl)-2-hydroxy-3,4-dihydro-2H-1,5,2-oxazaborinin-4-yl)acetic acid] and `CC1(C)OC(=O)c2cc(-c3cc(-c4ccc(C5=N[C@H](CC(=O)O)CB(O)O5)cc4)on3)ccc2O1` [Compound 52, (S)-2-(6-(4-(3-(2,2-Dimethyl-4-oxo-4H-benzo[d][1,3]dioxin-6-yl)isoxazol-5-yl)phenyl)-2-hydroxy-3,4-dihydro-2H-1,5,2-oxazaborinin-4-yl)acetic acid] are within error of each other in IC50: 203 ± 50 µM for the first, 139 ± 18 µM for the second.

First: O=CCC(CC(=O)O)NC(=O)c1ccc(-c2cn(-c3ccc(O)c(C(=O)O)c3)nn2)cc1 (stereo not drawn) [Compound 64, 5-(4-(4-((1-Carboxy-4-oxobutan-2-yl)carbamoyl)phenyl)-1H-1,2,3-triazol-1-yl)-2-hydroxybenzoic acid]
Second: N#CC[C@@H](CC(=O)O)NC(=O)c1ccc(-c2cn(-c3ccc(O)c(C(=O)O)c3)nn2)cc1 [Compound 50, (S)-5-(4-(4-((1-Carboxy-3-cyanopropan-2-yl)carbamoyl)phenyl)-1H-1,2,3-triazol-1-yl)-2-hydroxybenzoic acid]
The IC50 of the first is 2.2-fold higher: 60 ± 15 µM for the first, 27 ± 9 µM for the second.

System: sirtuin 5
Assay: not given
Details: Figure 1, high-throughput screening hits; read-out: IC50 (published sirtuin 5 inhibitor); cited from earlier work

Compared with `C=C1c2cccc(O)c2C(=O)C2=C(O)[C@]3(O)C(=O)C(C(N)=O)=C(O)[C@@H](N(C)C)[C@@H]3[C@@H](O)[C@H]12` [Methacycline, methacycline], `O=C1c2c(O)cccc2Cc2cccc(O)c21` [Anthralin, anthralin] is 36-fold lower in IC50: 3.6 µM for the first, 0.1 µM for the second. The second is the more potent here.

In the case of `O=C(O)CCNC(=O)c1ccc(/N=N/c2ccc(O)c(C(=O)O)c2)cc1` [Balsalazide, balsalazide], the IC50 is given as 3.9 µM.

Same assay, conditions: Figure 1; read-out: IC50 (published sirtuin 5 inhibitor); cited from earlier work

First: N#C/C(=C\c1ccc(-c2ccc(C(=O)O)cc2)o1)C(=O)Nc1ccc(C#N)c(F)c1 [Liu compound 37]
Second: C=CCN1C(=O)/C(=C\c2ccc(-c3cccc(Cl)c3Cl)o2)C(=O)NC1=S [Maurer compound 2]
The IC50 of the first is 2.4-fold higher: 5.6 µM for the first, 2.3 µM for the second.

Compared with `O=c1[nH]c(=S)[nH]c(-c2ccccc2)c1Cc1c(O)ccc2ccccc12` [Cambinol, cambinol], `O=C1Nc2ccc(I)cc2/C1=C/c1cc(Br)c(O)c(Br)c1` [GW5074] is 2.1-fold lower in IC50: 43 µM for the first, 20 µM for the second. The second is the more potent here.

Same assay, conditions: published values of the lead structures; read-out: IC50 (published values of lead structures); cited from earlier work

In the case of `O=C(O)CCNC(=O)c1ccc(-c2cn(-c3ccc(O)c(C(=O)O)c3)nn2)cc1` [CG_220], the IC50 is given as 7 µM and 7.4 µM.

In the case of `O=C(O)CCNC(=O)c1ccc(-c2cc(-c3ccc(O)c(C(=O)O)c3)no2)cc1` [CG_209], the IC50 is given as 12 µM.
